{
  "source": "patent US12077503B2",
  "about": "“Substituted cyclic amides and their use as herbicides” (FMC CORPORATION, priority 2015, dated 2024)",
  "assay_in_all_cases": "Test C preemergence",
  "assay_type_in_all_cases": "in vivo",
  "key": {"[1]": {"tested_on": "barnyardgrass (Echinochloa crus-galli)", "settings": "for Plant response rating, Barnyardgrass: scale 0 to 100, 0 no effect, 100 complete control", "summary_of_the_method": "(§1)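 After treatment with surfactant-containing formulations, either preemergence to seeds in loam-sand soil or postemergence to potted seedlings at 2–18 cm, plants were kept 13–15 d in a greenhouse. Observers then compared them with controls and assigned ratings, 0 signifying no effect and 100 complete control.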"}, "corn (Zea mays)": {"tested_on": "corn (Zea mays)", "settings": "for Plant response rating, Corn: scale 0 to 100, 0 no effect, 100 complete control", "summary_of_the_method": "as §1"}, "[2]": {"tested_on": "johnsongrass (Sorghum halepense)", "settings": "for Plant response rating, Johnsongrass: scale 0 to 100, 0 no effect, 100 complete control", "summary_of_the_method": "as §1"}, "[3]": {"tested_on": "lambsquarters (Chenopodium album)", "settings": "for Plant response rating, Lambsquarters: scale 0 to 100, 0 no effect, 100 complete control", "summary_of_the_method": "as §1"}, "[4]": {"tested_on": "nutsedge, yellow (yellow nutsedge, Cyperus esculentus)", "settings": "for Plant response rating, Nutsedge, Yellow: scale 0 to 100, 0 no effect, 100 complete control", "summary_of_the_method": "as §1"}, "[5]": {"tested_on": "oilseed rape (Brassica napus)", "settings": "for Plant response rating, Oilseed Rape: scale 0 to 100, 0 no effect, 100 complete control", "summary_of_the_method": "as §1"}, "[6]": {"tested_on": "pigweed (Amaranthus retroflexus)", "settings": "for Plant response rating, Pigweed: scale 0 to 100, 0 no effect, 100 complete control", "summary_of_the_method": "as §1"}, "[7]": {"tested_on": "ragweed (common ragweed, Ambrosia elatior)", "settings": "for Plant response rating, Ragweed: scale 0 to 100, 0 no effect, 100 complete control", "summary_of_the_method": "as §1"}, "[8]": {"tested_on": "waterhemp (common waterhemp, Amaranthus rudis)", "settings": "for Plant response rating, Waterhemp: scale 0 to 100, 0 no effect, 100 complete control", "summary_of_the_method": "as §1"}, "[9]": {"settings": "31 g ai/ha, 0 is no effect, 100 is complete control"}},
  "data": [
    {"smiles": "CN1C[C@H](c2ccc(C(F)(F)F)cc2)[C@@H](C(=O)Nc2ccccc2F)C1=O", "note": "[Compound 622, (3S,4S)—N-(2-fluorophenyl)-1-methyl-2-oxo-4-[4-(trifluoromethyl)phenyl]-3-pyrrolidinecarboxamide]", "values": [
      {"measurement": "Plant response rating (scale of 0 to 100), Barnyardgrass", "setting": "[1]; [9]", "result": 90},
      {"measurement": "Plant response rating, Barnyardgrass", "setting": "[1]; 62 g ai/ha", "result": 95},
      {"measurement": "Plant response rating, Barnyardgrass", "setting": "[1]; 125 g ai/ha", "result": 90},
      {"measurement": "Plant response rating, Barnyardgrass", "setting": "[1]; 250 g ai/ha", "result": 95},
      {"measurement": "Plant response rating (scale of 0 to 100), Corn", "setting": "corn (Zea mays); [9]", "result": 5},
      {"measurement": "Plant response rating, Corn", "setting": "corn (Zea mays); 62 g ai/ha", "result": 45},
      {"measurement": "Plant response rating, Corn", "setting": "corn (Zea mays); 125 g ai/ha", "result": 85},
      {"measurement": "Plant response rating, Corn", "setting": "corn (Zea mays); 250 g ai/ha", "result": 80},
      {"measurement": "Plant response rating (scale of 0 to 100), Johnsongrass", "setting": "[2]; [9]", "result": 25},
      {"measurement": "Plant response rating, Johnsongrass", "setting": "[2]; 62 g ai/ha", "result": 60},
      {"measurement": "Plant response rating, Johnsongrass", "setting": "[2]; 125 g ai/ha", "result": 50},
      {"measurement": "Plant response rating, Johnsongrass", "setting": "[2]; 250 g ai/ha", "result": 65},
      {"measurement": "Plant response rating (scale of 0 to 100), Lambsquarters", "setting": "[3]; [9]", "result": 75},
      {"measurement": "Plant response rating, Lambsquarters", "setting": "[3]; 62 g ai/ha", "result": 35},
      {"measurement": "Plant response rating, Lambsquarters", "setting": "[3]; 125 g ai/ha", "result": 70},
      {"measurement": "Plant response rating, Lambsquarters", "setting": "[3]; 250 g ai/ha", "result": 75},
      {"measurement": "Plant response rating (scale of 0 to 100), Nutsedge, Yellow", "setting": "[4]; [9]", "result": 0},
      {"measurement": "Plant response rating, Nutsedge, Yellow", "setting": "[4]; 62 g ai/ha", "result": 0},
      {"measurement": "Plant response rating, Nutsedge, Yellow", "setting": "[4]; 125 g ai/ha", "result": 0},
      {"measurement": "Plant response rating, Nutsedge, Yellow", "setting": "[4]; 250 g ai/ha", "result": 0},
      {"measurement": "Plant response rating (scale of 0 to 100), Oilseed Rape", "setting": "[5]; [9]", "result": 60},
      {"measurement": "Plant response rating, Oilseed Rape", "setting": "[5]; 62 g ai/ha", "result": 85},
      {"measurement": "Plant response rating, Oilseed Rape", "setting": "[5]; 125 g ai/ha", "result": 85},
      {"measurement": "Plant response rating, Oilseed Rape", "setting": "[5]; 250 g ai/ha", "result": 85},
      {"measurement": "Plant response rating (scale of 0 to 100), Pigweed", "setting": "[6]; [9]", "result": 75},
      {"measurement": "Plant response rating, Pigweed", "setting": "[6]; 62 g ai/ha", "result": 85},
      {"measurement": "Plant response rating, Pigweed", "setting": "[6]; 125 g ai/ha", "result": 85},
      {"measurement": "Plant response rating, Pigweed", "setting": "[6]; 250 g ai/ha", "result": 90},
      {"measurement": "Plant response rating (scale of 0 to 100), Ragweed", "setting": "[7]; [9]", "result": 45},
      {"measurement": "Plant response rating, Ragweed", "setting": "[7]; 62 g ai/ha", "result": 70},
      {"measurement": "Plant response rating, Ragweed", "setting": "[7]; 125 g ai/ha", "result": 85},
      {"measurement": "Plant response rating, Ragweed", "setting": "[7]; 250 g ai/ha", "result": 85},
      {"measurement": "Plant response rating (scale of 0 to 100), Waterhemp", "setting": "[8]; [9]", "result": 75},
      {"measurement": "Plant response rating, Waterhemp", "setting": "[8]; 62 g ai/ha", "result": 85},
      {"measurement": "Plant response rating, Waterhemp", "setting": "[8]; 125 g ai/ha", "result": 90},
      {"measurement": "Plant response rating, Waterhemp", "setting": "[8]; 250 g ai/ha", "result": 90}
    ]}
  ]
}
